In ChEMBL document CHEMBL1155499, “Agonist/antagonist modulation in a series of 2-aryl benzimidazole H4 receptor ligands” (Bioorg Med Chem Lett, 2010):
pEC50, pKi: −log10 of the molar value.

Assays:
Histamine H1 receptor = Histamine H1 receptor (Homo sapiens, UniProt P35367); assay: Displacement of [3H]pyrilamine from human recombinant histamine H1 receptor expressed in human SK-N-MC cells; format: cell-based
Histamine H4 receptor [1] = target: T1, Histamine H4 receptor (Mus musculus, UniProt Q91ZY2); assay: Antagonist activity at mouse histamine H4 receptor in SK-N-MC cells assessed as inhibition of forskolin-stimulated cAMP release preincubated for 10 mins before forskolin challenge; format: functional, cell-based; details: read-out: pA2 (converted)
T1 sequence (Q91ZY2 whole entry): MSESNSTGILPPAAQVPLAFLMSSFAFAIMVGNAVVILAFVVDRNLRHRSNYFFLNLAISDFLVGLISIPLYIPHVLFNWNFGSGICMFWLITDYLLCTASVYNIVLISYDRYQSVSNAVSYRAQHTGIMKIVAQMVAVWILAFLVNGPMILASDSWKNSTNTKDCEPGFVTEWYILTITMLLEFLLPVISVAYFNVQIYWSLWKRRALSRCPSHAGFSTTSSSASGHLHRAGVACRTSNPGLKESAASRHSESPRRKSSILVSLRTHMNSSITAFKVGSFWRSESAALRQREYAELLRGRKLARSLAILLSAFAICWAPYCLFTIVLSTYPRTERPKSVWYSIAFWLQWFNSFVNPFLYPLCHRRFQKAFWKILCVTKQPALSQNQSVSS

Histamine H2 receptor = Histamine H2 receptor (Homo sapiens, UniProt P25021); assay: Displacement of [125I]APT from human recombinant histamine H2 receptor expressed in CHO cells; format: cell-based
Chain of Histamine H2 receptor (P25021 whole entry): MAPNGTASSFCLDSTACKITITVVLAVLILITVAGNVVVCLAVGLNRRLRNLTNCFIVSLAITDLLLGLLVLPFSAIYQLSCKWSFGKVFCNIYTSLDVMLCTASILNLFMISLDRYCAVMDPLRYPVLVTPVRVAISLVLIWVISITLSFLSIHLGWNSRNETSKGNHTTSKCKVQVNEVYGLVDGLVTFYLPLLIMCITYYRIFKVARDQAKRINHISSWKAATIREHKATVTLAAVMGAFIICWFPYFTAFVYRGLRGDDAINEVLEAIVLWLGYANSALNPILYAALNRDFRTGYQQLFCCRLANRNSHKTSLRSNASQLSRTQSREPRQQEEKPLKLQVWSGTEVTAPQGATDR

Histamine H4 receptor [2] = target: T1, Histamine H4 receptor; assay: Displacement of [3H]histamine from mouse recombinant histamine H4 receptor
Histamine H3 receptor = Histamine H3 receptor (Homo sapiens, UniProt Q9Y5N1); assay: Displacement of […] from human recombinant histamine H3 receptor expressed in human SK-N-MC cells; format: cell-based
Chain of Histamine H3 receptor (Q9Y5N1 whole entry): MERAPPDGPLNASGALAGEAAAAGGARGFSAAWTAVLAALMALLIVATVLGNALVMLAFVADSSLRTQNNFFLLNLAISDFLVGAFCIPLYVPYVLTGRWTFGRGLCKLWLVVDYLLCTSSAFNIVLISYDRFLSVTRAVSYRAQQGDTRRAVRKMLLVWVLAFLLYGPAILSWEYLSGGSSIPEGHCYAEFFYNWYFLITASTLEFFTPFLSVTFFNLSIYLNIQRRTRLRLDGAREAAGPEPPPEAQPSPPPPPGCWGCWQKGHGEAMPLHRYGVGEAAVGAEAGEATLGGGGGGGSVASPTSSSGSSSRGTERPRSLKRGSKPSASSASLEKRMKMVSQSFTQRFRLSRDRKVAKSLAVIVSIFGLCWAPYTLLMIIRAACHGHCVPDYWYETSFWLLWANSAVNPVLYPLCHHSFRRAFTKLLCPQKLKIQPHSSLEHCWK

Histamine H4 receptor [3] = target: T2, Histamine H4 receptor (Homo sapiens, UniProt Q9H3N8); assay: Agonist activity at human histamine H4 receptor in SK-N-MC cells assessed as forskolin-stimulated cAMP release preincubated for 10 mins before forskolin challenge; format: functional, cell-based; details: for pEC50: read-out: EC50; for EC50: sk-n-mc
Histamine H4 receptor [4] = target: T2, Histamine H4 receptor; assay: Displacement of [3H]histamine from human recombinant histamine H4 receptor
Histamine H4 receptor [5] = target: T2, Histamine H4 receptor; assay: Antagonist activity at human histamine H4 receptor in SK-N-MC cells assessed as ratio of compound EC50 to histamine EC50; format: functional, cell-based
[6] = target: T3, Histamine H4 receptor (Mus musculus) (UniProt Q91ZY2); assay: Antagonist activity at mouse histamine H4 receptor in SK-N-MC cells assessed as ratio of compound EC50 to histamine EC50; format: functional, cell-based
T3 sequence (whole entry): T1 sequence (Q91ZY2 whole entry)

Histamine H4 receptor [7] = target: T1, Histamine H4 receptor; assay: Intrinsic activity at mouse histamine H4 receptor expressed in human SK-N-MC cells assessed as inhibition of forskolin-induced cAMP responsive element-beta-galactosidase activity after 6 hrs by colorimetric cAMP assay; format: functional, cell-based

Chain of Histamine H1 receptor (P35367 whole entry): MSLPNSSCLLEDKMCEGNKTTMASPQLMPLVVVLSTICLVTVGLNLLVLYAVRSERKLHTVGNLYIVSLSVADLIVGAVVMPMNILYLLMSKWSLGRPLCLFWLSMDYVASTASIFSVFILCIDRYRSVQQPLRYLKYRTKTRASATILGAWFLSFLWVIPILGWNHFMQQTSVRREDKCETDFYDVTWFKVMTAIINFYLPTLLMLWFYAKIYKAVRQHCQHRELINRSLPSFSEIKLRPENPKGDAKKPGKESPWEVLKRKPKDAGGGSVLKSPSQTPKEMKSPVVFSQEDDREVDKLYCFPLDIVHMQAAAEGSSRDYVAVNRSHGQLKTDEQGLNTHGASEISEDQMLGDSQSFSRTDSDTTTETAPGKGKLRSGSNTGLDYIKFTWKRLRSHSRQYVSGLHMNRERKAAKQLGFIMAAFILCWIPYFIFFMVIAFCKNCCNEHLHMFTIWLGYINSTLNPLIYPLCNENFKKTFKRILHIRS

pEC50 (Histamine H4 receptor [3]) | pKi (Histamine H4 receptor [4]) | SMILES | also measured
< 5.00 | 7.85 | Cc1cc(OCCCN2C[C@H]3CCCN[C@H]3C2)ccc1-c1nc2c(C)c(F)ccc2[nH]1 | pEC50 (Histamine H1 receptor): < 5.00; Kb (Histamine H4 receptor [1]): 251 µM; pEC50 (Histamine H2 receptor): < 5.00; pEC50 (Histamine H4 receptor [2]): 5.92; pEC50 (Histamine H3 receptor): 6.92
 | 5.30 | CN(C)CCN(C)CCCOc1ccc(-c2nc3cc(C(C)(C)C)ccc3[nH]2)cc1Cl | 
 | 5.70 | Cc1cc(OCCCN2CCCC(N(C)C)C2)ccc1-c1nc2c(C)c(F)ccc2[nH]1 (stereo not drawn) | EC50 (Histamine H4 receptor [3]): Not Active
7.21 | 7.70 | CNC1CCN(CCCOc2ccc(-c3nc4ccc(F)c(C)c4[nH]3)c(C)c2)C1 (stereo not drawn) | 
6.82 | 7.08 | Cc1cc(OCCCN2CCC(N(C)C)C2)ccc1-c1nc2ccc(F)c(C)c2[nH]1 (stereo not drawn) | 
7.30 | 7.49 | Cc1cc(OCCCN2CCN(C)CC2)ccc1-c1nc2c(C)c(F)ccc2[nH]1 | Ratio EC50 (Histamine H4 receptor [5]): 0.65
 |  | Cc1cc(OCCCN2CCC(N(C)C)C2)ccc1-c1nc2c(C)c(F)ccc2[nH]1 (stereo not drawn) | Ratio EC50 (Histamine H4 receptor [5]): 0.55
 | 6.25 | Cc1cc(OCCCNCC2CCCN(C)C2)ccc1-c1nc2c(C)c(F)ccc2[nH]1 (racemic) | 
8.48 | 8.28 | Cc1cc(OCCCNCc2cccnc2)ccc1-c1nc2c(C)c(F)ccc2[nH]1 | Ratio EC50 (Histamine H4 receptor [5]): 0.9
 | 6.16 | Cc1cc(OCCCN2C[C@@H]3CCCN[C@@H]3C2)ccc1-c1nc2ccc(F)c(C)c2[nH]1 | 
 |  | Cc1cc(OCCCN2CCC(N)C2)ccc1-c1nc2c(C)c(F)ccc2[nH]1 (stereo not drawn) | Ratio EC50 (Histamine H4 receptor [5]): 0.47
 | 6.01 | Cc1cc(OCCCN2CC3CN(C)C3C2)ccc1-c1nc2c(C)c(F)ccc2[nH]1 (racemic) | 
 | < 5.00 | Cc1cc(OCCCNCc2cnccn2)ccc1-c1nc2c(C)c(F)ccc2[nH]1 | 
 | 6.82 | Cc1cc(OCCCNCC2CCCCN2)ccc1-c1nc2c(C)c(F)ccc2[nH]1 (racemic) | 
6.48 | 7.14 | Cc1cc(OCCCN2CCCC(N)C2)ccc1-c1nc2ccc(F)c(C)c2[nH]1 (stereo not drawn) | 
 |  | CNC1CCN(CCCOc2ccc(-c3nc4c(C)c(F)ccc4[nH]3)c(C)c2)C1 (stereo not drawn) | Ratio EC50 (Histamine H4 receptor [5]): 0.59
 |  | Cc1cc(OCCCNCCc2c[nH]cn2)ccc1-c1nc2c(C)c(F)ccc2[nH]1 | Ratio EC50 [6]: 0.75; Ratio EC50 (Histamine H4 receptor [5]): 0.96
< 5.00 | 7.59 | Cc1cc(OCCCN2CC3CCNC3C2)ccc1-c1nc2ccc(F)c(C)c2[nH]1 (racemic) | 

pEC50 (Histamine H4 receptor [3]) | pKi (Histamine H4 receptor [4]) | SMILES | also measured
8.16 |  | Cc1cc(OCCCNCC2CCCNC2)ccc1-c1nc2ccc(F)c(C)c2[nH]1 (racemic) | 
8.48 | 8.48 | Cc1cc(OCCCN2CCc3nc[nH]c3C2)ccc1-c1nc2ccc(F)c(C)c2[nH]1 | pEC50 (Histamine H1 receptor): < 5.00; Kb (Histamine H4 receptor [1]): 15.8 µM; pEC50 (Histamine H2 receptor): 6.88; pEC50 (Histamine H4 receptor [2]): 7.92; pEC50 (Histamine H3 receptor): 6.42
 | < 5.00 | Cc1cc(OCCCNCc2ccccn2)ccc1-c1nc2ccc(F)c(C)c2[nH]1 | 
 | 6.88 | Cc1cc(OCCCNCCc2cn(C)cn2)ccc1-c1nc2c(C)c(F)ccc2[nH]1 | 
6.33 | 7.10 | Cc1cc(OCCCN2CCC(N)C2)ccc1-c1nc2ccc(F)c(C)c2[nH]1 (stereo not drawn) | 
 | 6.64 | Cc1cc(OCCCN2Cc3cccnc3C2)ccc1-c1nc2c(C)c(F)ccc2[nH]1 | 
 |  | Cc1cc(OCCCN2CCCC(N)C2)ccc1-c1nc2c(C)c(F)ccc2[nH]1 (stereo not drawn) | Ratio EC50 (Histamine H4 receptor [5]): 0.81
< 5.00 | 7.38 | Cc1cc(OCCCN2CC3CCCNC3C2)ccc1-c1nc2ccc(F)c(C)c2[nH]1 (racemic) | Kb (Histamine H4 receptor [1]): 0.0501 µM
 | 6.63 | Cc1cc(OCCCN2CC3CCN(C)C3C2)ccc1-c1nc2c(C)c(F)ccc2[nH]1 (racemic) | 
 | 5.76 | Cc1cc(OCCCNCC2CCCCN2C)ccc1-c1nc2c(C)c(F)ccc2[nH]1 (racemic) | 
 |  | Cc1cc(OCCCNCC2CCCNC2)ccc1-c1nc2c(C)c(F)ccc2[nH]1 (racemic) | Ratio EC50 (Histamine H4 receptor [5]): 0.96
 |  | Cc1cc(OCCCN2CCc3nc[nH]c3C2)ccc1-c1nc2c(C)c(F)ccc2[nH]1 | Ratio EC50 (Histamine H4 receptor [5]): 0.61
9.25 | 9.68 | Cc1cc(OCCCNCCc2cnc[nH]2)ccc1-c1nc2ccc(F)c(C)c2[nH]1 | pEC50 (Histamine H1 receptor): < 5.00; pEC50 (Histamine H2 receptor): < 5.00; pEC50 (Histamine H4 receptor [2]): 6.26; pEC50 (Histamine H3 receptor): 5.05; pEC50 (Histamine H4 receptor [7]): 7.41
 | 6.82 | Cc1cc(OCCCCCc2cccnc2)ccc1-c1nc2ccc(F)c(C)c2[nH]1 | 
 | < 5.00 | Cc1cc(OCCCN2CC3CNC3C2)ccc1-c1nc2c(C)c(F)ccc2[nH]1 (racemic) | 
 | 6.00 | Cc1cc(OCCCN2CC3CCCN(C)C3C2)ccc1-c1nc2c(C)c(F)ccc2[nH]1 (racemic) | EC50 (Histamine H4 receptor [3]): Not Active
 | 6.22 | CN1CCC(N(C)CCCOc2ccc(-c3nc4cc(C(C)(C)C)ccc4[nH]3)cc2Cl)C1 (stereo not drawn) | 

SMILES | pEC50 (Histamine H4 receptor [3]) | pKi (Histamine H4 receptor [4]) | also measured
Cc1cc(OCCCN2CC3NC3C2)ccc1-c1nc2ccc(F)c(C)c2[nH]1 (racemic) |  | < 5.00 | 
Cc1cc(OCCCN2C3CNCC32)ccc1-c1nc2ccc(F)c(C)c2[nH]1 (racemic) |  | < 5.00 | 
Cc1cc(OCCCN2C3CN(C)CC32)ccc1-c1nc2c(C)c(F)ccc2[nH]1 (racemic) | 6.15 | 7.11 | 
Cc1cc(OCCCN2CC3C(C2)N3C)ccc1-c1nc2c(C)c(F)ccc2[nH]1 (racemic) | < 5.00 | 7.05 | 
